Experiments:
[1] = system: Zone of skin; assay: AUC (0 to 24 hrs) in high fat fed healthy human skin measured per gram of tissue at 400 mg, po bid after 8 days; type: ADME, organism-based; set-up: dose 400 mg, time < 24 hr, route oral; settings: in vivo
[2] = Cmax in high fat fed healthy human plasma at 400 mg, po bid after 1 day; type: ADME, organism-based; set-up: dose 400 mg, route oral
[3] = AUC (0 to 12 hrs) in high fat fed healthy human plasma measured per ml of plasma at 400 mg, po bid after 8 days; type: ADME, organism-based; set-up: dose 400 mg, time < 12 hr, route oral
[4] = Cmax in high fat fed healthy human skin at 400 mg, po bid after 8 days; type: ADME, organism-based, Zone of skin; set-up: dose 400 mg, route oral
[5] = system: Zone of skin; assay: AUC (0 to 12 hrs) in high fat fed healthy human skin measured per gram of tissue at 400 mg, po bid after 8 days; type: ADME, organism-based; set-up: time < 12 hr, dose 400 mg, route oral; settings: in vivo
[6] = system: Homo sapiens; assay: Toxicity in healthy human assessed as treatment related treatment-emergent adverse events at 400 mg, po bid after 8 days; type: organism-based; settings: in vivo, 192 h
[7] = T>MIC90 in fungus infected patient plasma at 400 mg, po bid after 8 days; type: functional
[8] = Ratio of AUC in skin to plasma in healthy human at 400 mg, po bid after 8 days; type: ADME, organism-based, Skin of body; settings: skin and plasma
[9] = Cmax in high fat fed healthy human plasma at 400 mg, po bid after 8 days; type: ADME, organism-based; set-up: dose 400 mg, route oral
[10] = system: Homo sapiens; assay: Toxicity in healthy human assessed as treatment-emergent adverse events at 400 mg, po bid after 8 days; type: organism-based; settings: in vivo, 192 h
[11] = Tmax in high fat fed healthy human skin at 400 mg, po bid after 1 day; type: ADME, organism-based, Zone of skin
[12] = system: Zone of skin; assay: AUC (0 to 24 hrs) in high fat fed healthy human skin measured per gram of tissue at 400 mg, po bid after 1 day; type: ADME, organism-based; set-up: dose 400 mg, time < 24 hr, route oral; settings: in vivo
[13] = AUC (0 to 24 hrs) in high fat fed healthy human plasma measured per ml of plasma at 400 mg, po bid after 8 days; type: ADME, organism-based; set-up: time < 24 hr, dose 400 mg, route oral
[14] = T>MIC90 in fungus infected patient skin at 400 mg, po bid after 1 day; type: functional
[15] = AUC (0 to 24 hrs) in high fat fed healthy human plasma measured per ml of plasma at 400 mg, po bid after 1 day; type: ADME, organism-based; set-up: time < 24 hr, dose 400 mg, route oral
[16] = Cmax in high fat fed healthy human skin at 400 mg, po bid after 1 day; type: ADME, organism-based, Zone of skin; set-up: dose 400 mg, route oral
[17] = T>MIC90 in fungus infected patient skin at 400 mg, po bid after 8 days; type: functional
[18] = system: Zone of skin; assay: AUC (0 to 12 hrs) in high fat fed healthy human skin measured per gram of tissue at 400 mg, po bid after 1 day; type: ADME, organism-based; set-up: dose 400 mg, time < 12 hr, route oral; settings: in vivo
[19] = Tmax in high fat fed healthy human plasma at 400 mg, po bid after 1 day; type: ADME, organism-based
[20] = AUC (0 to 12 hrs) in high fat fed healthy human plasma measured per ml of plasma at 400 mg, po bid after 1 day; type: ADME, organism-based; set-up: dose 400 mg, time < 12 hr, route oral
[21] = Tmax in high fat fed healthy human skin at 400 mg, po bid after 8 days; type: ADME, organism-based, Zone of skin
[22] = T>MIC90 in fungus infected patient plasma at 400 mg, po bid after 1 day; type: functional

Question: With CC[C@@H]([C@H](C)O)n1ncn(-c2ccc(N3CCN(c4ccc(OC[C@@H]5CO[C@@](Cn6cncn6)(c6ccc(F)cc6F)C5)cc4)CC3)cc2)c1=O [POSACONAZOLE] as the molecule, how does the AUC [1] read?
Answer: 46800 ng·h/g

Question: What about the Cmax [2] of the same molecule?
Answer: 453 ng/mL

Question: What about the AUC at 12 h [3] of the same molecule?
Answer: 18600 ng·h/mL

Question: What about the Cmax [4] of the same molecule?
Answer: 2610 ng/g

Question: And the AUC [5]?
Answer: 23400 ng·h/g

Question: What about the Activity [6] of the same molecule?
Answer: 37%

Question: What about the “T>MIC90” value [7] of the same molecule?
Answer: 12 h

Question: And the Kp at 192 h [8]?
Answer: 1.26

Question: And the Cmax [9]?
Answer: 1740 ng/mL

Question: What about the Activity [10] of the same molecule?
Answer: 57%

Question: What about the Tmax [11] of the same molecule?
Answer: 12 h

Question: What about the AUC [12] of the same molecule?
Answer: 3520 ng·h/g

Question: What about the AUC at 24 h [13] of the same molecule?
Answer: 37200 ng·h/mL

Question: And the “T>MIC90” value [14]?
Answer: 2.24 h

Question: What about the AUC at 24 h [15] of the same molecule?
Answer: 7260 ng·h/mL

Question: And the Cmax [16]?
Answer: 328 ng/g

Question: And the “T>MIC90” value [17]?
Answer: 12 h

Question: What about the AUC [18] of the same molecule?
Answer: 1760 ng·h/g

Question: And the Tmax [19]?
Answer: 8 h

Question: And the AUC at 12 h [20]?
Answer: 3630 ng·h/mL

Question: What about the Tmax [21] of the same molecule?
Answer: 3 h

Question: What about the “T>MIC90” value [22] of the same molecule?
Answer: 8.13 h

Source: ChEMBL document CHEMBL1255452, “Skin concentrations and pharmacokinetics of posaconazole after oral administration” (Antimicrob Agents Chemother, 2010)
